# Experimental data reported in patent publication US8440830B2, “Tetrahydro-fused pyridines as histone deacetylase inhibitors” (4SC AG, priority 2007, dated 2013).
# Tested on: A549 NSCLC cells
# Test: Cellular cytotoxicity assay (Alamar Blue), A549
# Type: cell-based
# Conditions: Homo sapiens, 72 h, upper end given as ≧100, read-out: IC50 (μM), cytotoxicity towards A549 NSCLC cells
# In short: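 Resazurin-to-resorufin fluorescence (ex 544, em 590 nm, after 4 h) gave viability as % of untreated cells following 72 h compound exposure at 37 °C. Compounds were added in semi-logarithmic dilutions 24 h post-seeding, quadruplicate wells; IC50 fitted by non-linear regression of concentration-effect curves.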
row,SMILES,IC50 [µM]
1,"Cc1ccc(NC(=O)C(=O)N2CCc3nc(C(=O)Nc4ccccc4N)sc3C2)nc1 [Example 76, N-(2-aminophenyl)-5-{[(5-methylpyridin-2-yl)amino](oxo)acetyl}-4,5,6,7-tetrahydro[1,3]thiazolo[5,4-c]pyridine-2-carboxamide]",≥ 0.2
2,"CC(C)c1ccc(N)c(NC(=O)c2nc3c(s2)CN(C(=O)Nc2ccc(F)cc2)CC3)c1 [Example 52, N^2-(2-amino-5-isopropylphenyl)-N^5-(4-fluorophenyl)-6,7-dihydro[1,3]thiazolo[5,4-c]pyridine-2,5(4H)-dicarboxamide]",≥ 0.2
3,"Nc1ccccc1NC(=O)c1nc2c(s1)CN(C(=O)Nc1ccccc1OC(F)F)CC2 [Example 10, N^2-(2-aminophenyl)-N5-[2-(difluoromethoxy)phenyl]-6,7-dihydro[1,3]thiazolo[5,4-c]pyridine-2,5(4H)-dicarboxamide]",≥ 0.2
4,"CC(C)c1ccc(N)c(NC(=O)c2nc3c(s2)CN(C(=O)Nc2cccc4cnccc24)CC3)c1 [Example 49, N^2-(2-amino-5-isopropylphenyl)-N^5-isoquinolin-5-yl-6,7-dihydro[1,3]thiazolo[5,4-c]pyridine-2,5(4H)-dicarboxamide]",≥ 0.2
5,"Nc1ccccc1NC(=O)c1nc2c(s1)CN(C(=S)Nc1ccccc1)CC2 [Example 98, N-(2-aminophenyl)-5-(anilinocarbonothioyl)-4,5,6,7-tetrahydro[1,3]thiazolo[5,4-c]pyridine-2-carboxamide]",≥ 0.2
6,"CN(C)c1ccc(NC(=NC#N)N2CCc3nc(C(=O)Nc4ccccc4N)sc3C2)cc1 [Example 120, N-(2-aminophenyl)-5-[(cyanoimino){[4-(dimethylamino)phenyl]amino}methyl]-4,5,6,7-tetrahydro[1,3]thiazolo[5,4-c]pyridine-2-carboxamide]",≥ 0.2
7,"Nc1ccccc1NC(=O)c1nc2c(s1)CN(S(=O)(=O)c1cccc(C(F)(F)F)c1)CC2 [Example 162, N-(2-aminophenyl)-5-{[3-(trifluoromethyl)phenyl]sulfonyl}-4,5,6,7-tetrahydro[1,3]thiazolo[5,4-c]pyridine-2-carboxamide]",≥ 0.2
8,"Nc1ccccc1NC(=O)c1nc2c(s1)CN(C(=O)Nc1ccc(Oc3ccccc3)cc1)CC2 [Example 6, N^2-(2-aminophenyl)-N5-(4-phenoxyphenyl)-6,7-dihydro[1,3]thiazolo[5,4-c]pyridine-2,5(4H)-dicarboxamide]",≥ 0.2
9,"COc1ccc(NC(=O)N2CCc3nc(C(=O)Nc4ccccc4N)sc3C2)cn1 [Example 38, N^2-(2-aminophenyl)-N^5-(6-methoxypyridin-3-yl)-6,7-dihydro[1,3]thiazolo[5,4-c]pyridine-2,5(4H)-dicarboxamide]",≥ 0.2
10,"COc1ccc(N=C(C)N2CCc3nc(C(=O)Nc4cc(C(C)C)ccc4N)sc3C2)cc1OC [Example 133, N-(2-amino-5-isopropylphenyl)-5-[N-(3,4-dimethoxyphenyl)ethanimidoyl]-4,5,6,7-tetrahydro[1,3]thiazolo[5,4-c]pyridine-2-carboxamide]",≥ 0.2
11,"COc1ccc(N)c(NC(=O)c2nc3c(s2)CN(C(=O)C(=O)Nc2ccc(OC)c(OC)c2)CC3)c1 [Example 82, N-(2-amino-5-methoxyphenyl)-5-{[(3,4-dimethoxyphenyl)amino](oxo)acetyl}-4,5,6,7-tetrahydro[1,3]thiazolo[5,4-c]pyridine-2-carboxamide]",≥ 0.2
12,"Nc1ccccc1NC(=O)c1nc2c(s1)CN(C(=C[N+](=O)[O-])Nc1ccccc1)CC2 [Example 136, N-(2-aminophenyl)-5-[1-anilino-2-nitroyinyl]-4,5,6,7-tetrahydro[1,3]thiazolo[5,4-c]pyridine-2-carboxamide]",≥ 0.2
13,"CC(=Nc1ccccc1)N1CCc2nc(C(=O)Nc3cc(C(C)C)ccc3N)sc2C1 [Example 135, N-(2-amino-5-isopropylphenyl)-5-[N-phenylethanimidoyl]-4,5,6,7-tetrahydro[1,3]thiazolo[5,4-c]pyridine-2-carboxamide]",≥ 0.2
14,"COc1ccc(N)c(NC(=O)c2nc3c(s2)CN(C(C)=Nc2ccccc2)CC3)c1 [Example 129, N-(2-amino-5-methoxyphenyl)-5-[N-phenylethanimidoyl]-4,5,6,7-tetrahydro[1,3]thiazolo[5,4-c]pyridine-2-carboxamide]",≥ 0.2
15,"Nc1ccccc1NC(=O)c1nc2c(s1)CN(C(=O)Nc1ccc(OC(F)(F)F)cc1)CC2 [Example 9, N^2-(2-aminophenyl)-N5-[4-(trifluoromethoxy)phenyl]-6,7-dihydro[1,3]thiazolo[5,4-c]pyridine-2,5(4H)-dicarboxamide]",≥ 0.2
16,"COC(=O)c1ccc(NC(=O)N2CCc3nc(C(=O)Nc4ccccc4N)sc3C2)cc1 [Example 5, Methyl 4-[({2-[(2-aminophenyl)carbamoyl]-6,7-dihydro[1,3]thiazolo[5,4-c]pyridin-5(4H)-yl}carbonyl)amino]benzoate]",≥ 0.2

row,SMILES,IC50 [µM]
1,"CN(C)c1ccc(NC(=S)N2CCc3nc(C(=O)Nc4ccccc4N)sc3C2)cc1 [Example 99, N-(2-aminophenyl)-5-({[4-(dimethylamino)phenyl]amino}carbonothioyl)-4,5,6,7-tetrahydro[1,3]thiazolo[5,4-c]pyridine-2-carboxamide]",≥ 0.2
2,"COc1ccc(N)c(NC(=O)c2nc3c(s2)CN(C(=S)Nc2ccccc2)CC3)c1 [Example 102, N-(2-amino-5-methoxyphenyl)-5-(anilinocarbonothioyl)-4,5,6,7-tetrahydro[1,3]thiazolo[5,4-c]pyridine-2-carboxamide]",≥ 0.2
3,"COc1ccc(N)c(NC(=O)c2nc3c(s2)CN(C(=C[N+](=O)[O-])Nc2ccc(C(C)C)cc2)CC3)c1 [Example 143, N-(2-amino-5-methoxyphenyl)-5-{1-[(4-isopropylphenyl)amino]-2-nitrovinyl}-4,5,6,7-tetrahydro[1,3]thiazolo[5,4-c]pyridine-2-carboxamide]",≥ 0.2
4,"Nc1ccccc1NC(=O)c1nc2c(s1)CN(S(=O)(=O)c1ccc(C(F)(F)F)cc1)CC2 [Example 161, N-(2-aminophenyl)-5-{[4-(trifluoromethyl)phenyl}sulfonyl]-4,5,6,7-tetrahydro[1,3]thiazolo[5,4-c]pyridine-2-carboxamide]",≥ 0.2
5,"COc1ccc(N=C(C)N2CCc3nc(C(=O)Nc4cc(OC)ccc4N)sc3C2)cc1 [Example 130, N-(2-amino-5-methoxyphenyl)-5-[N-(4-methoxyphenyl)ethanimidoyl]-4,5,6,7-tetrahydro[1,3]thiazolo[5,4-c]pyridine-2-carboxamide]",≥ 0.2
6,"COc1ccc(NC(=O)C(=O)N2CCc3nc(C(=O)Nc4cc(OC)ccc4N)sc3C2)cc1 [Example 78, N-(2-amino-5-methoxyphenyl)-5-{[(4-methoxyphenyl)amino](oxo)acetyl}-4,5,6,7-tetrahydro[1,3]thiazolo[5,4-c]pyridine-2-carboxamide]",≥ 0.2
7,"Cc1ccc(NC(=O)C(=O)N2CCc3nc(C(=O)Nc4ccccc4N)sc3C2)cc1 [Example 75, N-(2-aminophenyl)-5-{[(4-methylphenyl)amino](oxo)acetyl}-4,5,6,7-tetrahydro[1,3]thiazolo[5,4-c]pyridine-2-carboxamide]",≥ 0.2
8,"CN=C(Nc1ccc(OC)cc1)N1CCc2nc(C(=O)Nc3cc(OC)ccc3N)sc2C1 [Example 115, N-(2-amino-5-methoxyphenyl)-5-[[(4-methoxyphenyl)amino](methylimino)methyl]-4,5,6,7-tetrahydro[1,3]thiazolo[5,4-c]pyridine-2-carboxamide]",≥ 0.2
9,"COc1ccc(NC(=O)N2CCc3nc(C(=O)Nc4cc(N(C)C)ccc4N)sc3C2)cc1 [Example 53, N^2-[2-amino-5-(dimethylamino)phenyl]N^5-(4-methoxyphenyl)-6,7-dihydro[1,3]thiazolo[5,4-c]pyridine-2,5(4H)-dicarboxamide]",≥ 0.2
10,"Nc1ccccc1NC(=O)c1nc2c(s1)CN(S(=O)(=O)Cc1ccccc1)CC2 [Example 151, N-(2-aminophenyl)-5-(benzylsulfonyl)-4,5,6,7-tetrahydro[1,3]thiazolo[5,4-c]pyridine-2-carboxamide]",≥ 0.2
11,"CC(C)c1ccc(N)c(NC(=O)c2nc3c(s2)CN(C(=S)Nc2cccnc2)CC3)c1 [Example 108, N-(2-amino-5-isopropylphenyl)-5-[(pyridin-3-ylamino)carbonothioyl]-4,5,6,7-tetrahydro[1,3]thiazolo[5,4-c]pyridine-2-carboxamide]",≥ 0.2
12,"CC(C)c1ccc(NC(=C[N+](=O)[O-])N2CCc3nc(C(=O)Nc4ccccc4N)sc3C2)cc1 [Example 139, N-(2-aminophenyl)-5-{1-[(4-isopropylphenyl)amino]-2-nitrovinyl}-4,5,6,7-tetrahydro[1,3]thiazolo[5,4-c]pyridine-2-carboxamide]",≥ 0.2
13,"Nc1ccccc1NC(=O)c1nc2c(s1)CN(S(=O)(=O)c1ccc3ccccc3c1)CC2 [Example 156, N-(2-aminophenyl)-5-(2-naphthylsulfonyl)-4,5,6,7-tetrahydro[1,3]thiazolo[5,4-c]pyridine-2-carboxamide]",≥ 0.2
14,"Nc1ccccc1NC(=O)c1nc2c(s1)CN(C(=O)COc1ccccc1)CC2 [Example 172, N-(2-aminophenyl)-5-(phenoxyacetyl)-4,5,6,7-tetrahydro[1,3]thiazolo[5,4-c]pyridine-2-carboxamide]",≥ 0.2
15,"COc1ccc(NC(=O)C(=O)N2CCc3nc(C(=O)Nc4cc(C(C)C)ccc4N)sc3C2)cc1OC [Example 80, N-(2-amino-5-isopropylphenyl)-5-{[(3,4-dimethoxyphenyl)amino](oxo)acetyl}-4,5,6,7-tetrahydro[1,3]thiazolo[5,4-c]pyridine-2-carboxamide]",≥ 0.2
16,"COc1ccc(N)c(NC(=O)c2nc3c(s2)CN(S(=O)(=O)c2ccc(C)cc2)CC3)c1 [Example 169, N-(2-amino-5-methoxyphenyl)-5-[(4-methylphenyl)sulfonyl]-4,5,6,7-tetrahydro[1,3]thiazolo[5,4-c]pyridine-2-carboxamide]",≥ 0.2
